Marks after values point to notes of the source that are not given here.
Assays:
Assay type in all cases: in vivo
[1] = test system: mouse maximum electroshock model (MES); assay: Antiepileptic effect in mouse maximum electroshock model (MES); details: gavage; for Number of animals with tonic straightening of hind limbs/total number of detected animals / Protection rate (%): MES, ICR mice
Description: A negative vehicle control group, a positive drug control group (pregabalin and gabapentin) and a test group of the compounds of the present application were set. Male ICR mice with a body weight of […] were selected. […] After fasted for 12 h, the mice were administered the compounds of the present application or the control drugs according to the body weight, and then subjected to electrical stimulation to induce generalized tonic-clonic seizure behaviors after a certain lime interval (2 h for pregabalin, 1 h for gabapentin, and 3 h for the compounds of the present application). A YLS-9A electrophysiological stimulator (Shanghai Xinruan Information Technology Co., Ltd.) was used in an induction model, and parameters were set as follows: configuration 8, stimulation voltage 160 V, wave number 90. When the electrical stimulation was performed, ears on both sides of the mice were firstly wiped with normal saline and then given the electrical stimulation for 1 lime with ear clip electrodes. Tonic straightening of hind limbs was used as a standard for epilepsy seizures. The animals with the tonic straightening of hind limbs were regarded as not being protected by the drugs, and the animals without the tonic straightening of hind limbs were regarded as being protected by the drugs. Response situations of the animals were observed and recorded, and obtained data were counted to calculate protection rates of the compounds.
Median effective doses (ED50) of the compounds to be tested for animal protection were calculated by a least square method (Graphpad Prism 5) with an administration dose-protection rate curve.

[2] = test system: Sprague Dawley (SD) rat spared nerve injury (SNI) model; assay: Analgesic effect in rat spared nerve injury (SNI) chronic neuropathic pain model; details: SNI rats
Description: Establishment of the SNI model: Surgery was performed according to an aseptic operation method, and various surgical instruments, including scalpels, tweezers, suture needles/threads, surgical cotton, etc., were disinfected before the surgery. Animals were anesthetized by intraperitoneal injection of a Zoletil™ 50 solution at 50 mg/kg and then placed in lateral decubitus positions. After hair in surgical areas of lower bodies of animals was shaved, the animals were disinfected alternately with iodophor and 75% alcohol. The skin was cut at upper edges of left hind limbs, muscles were bluntly separated to expose a sciatic nerve trunk and 3 branches thereof, i.e., a tibial nerve, a common peroneal nerve and a sural nerve. The tibial nerve and the common peroneal nerve were ligated and cut, and the sural nerve was preserved and maintained intact. After the surgery, wounds were sutured layer by layer, the animals were administered with 25% ampicillin (1 mL/kg) through intraperitoneal injection to prevent infection, and routine nursing was performed. In sham group, only the sciatic nerve and the branches thereof were exposed, the nerves were not ligated and cut, and other operations were the same as those in the model group. Detection of a mechanical pain threshold: A Von-frey test fiber was used to detect the mechanical pain threshold of the sole of an operative side of each animal on day 1, day 3 and day 7 after the surgery, respectively. An “up-and-down” method was used as a method of detecting the mechanical pain threshold at the stimulation intensity of 0.4, 0.6, 1, 2, 4, 6, 8, and 15 g. During the test, the test fiber was used to vertically stimulate the site, close to an outer side, in the sole center of the left hind paw of a rat for 6-8 seconds each time at an interval of 5 seconds. A pain response was shown as an obvious paw withdrawal, paw licking, or paw lifting behavior of the animals during each test. From day 11 after the surgery, the animals were placed in an experimental environment for adaptation, wherein the adaptation was performed continuously for 15 min per day for 3 days. On day 13, a basic value of mechanical pain hypersensitivity was detected after the adaptation was completed. The mechanical pain hypersensitivity was expressed by a 50% paw-withdrawal threshold (PWT) according to a calculation formula of 50% PWT (g)=10^xf+kδ, wherein xf is a log value of a fiber test force, k is a tabular value, and δ is an average spacing of the log value of the fiber test force.
Pharmacodynamic evaluation: According to basic threshold detection results on day 13 after the surgery, the animals in the model group without the mechanical pain hypersensitivity, that is, the PWT was greater than 4 g, were excluded, and the other successfully modeled animals were used for a formal test. On day 14 after the surgery, various compound to be tested were newly formulated. Pregabalin was directly dissolved with 0.9% sodium chloride at a dose of 30 mg/kg to obtain a solution at a desired concentration. (±)—I-7, (±)—I-3 and (±)—I-4 p-toluenesulfonate were also completely dissolved with a 0.9% sodium chloride solution at a dose of 30 mg/kg (calculated by free base). The successfully modeled animals were randomly divided into 5 groups with 8 animals in each group. In addition, 7 animals were selected in the sham group. […] The mechanical pain hypersensitivity response of the left hind paw was detected at 1 h, 2 h, 4 h, 6 h, 8 h, 10 h, and 24 h after the administration. Evaluation was performed by using a blind method, and a detection method was the same as above. An area under a mechanical pain threshold-time curve (AUC) was calculated using GraphPad Prism Version 8.0.1 software.

[3] = test system: mouse model with subcutaneous injection of pentylenetetrazole (sc-PTZ); assay: Antiepileptic effect in mouse model with subcutaneous injection of pentylenetetrazole (sc-PTZ); details: for Clonic seizure incidence / Convulsive seizure incidence / Generalized clonic seizure incidence / Mortality / Tonic seizure incidence: sc-PTZ 100 mg/kg, ICR mice, intraperitoneal 30 mg/kg (own compounds calculated by free base), 1 h observation; for latent periods of generalized clonic seizures, tonic seizures and death: 30 mg/kg (calculated by free base), FIG. 6
Description: A negative vehicle control group, a positive drug control group (pregabalin and gabapentin) and a test group of the compounds of the present application were set. Male ICR mice with a body weight of 22±2 g were selected. […] After fasted for 12 h, the mice were administered the compounds of the present application or the control drugs, and then subcutaneously injected with pentylenetetrazole (PTZ) to induce epilepsy seizure behaviors after a certain time interval (2 h for pregabalin, 1 h for gabapentin, and 3 h for the compounds of the present application). In an induction model, pentylenetetrazole (PTZ) was dissolved in normal saline and administered to the mice through the way of subcutaneous injection (10 mL/kg, administration dose 100 mg/kg). After the injection of PTZ, behavioral observations on the mice were conducted for 1 h, and the latent periods and numbers of the mice with convulsive seizures, clonic seizures, tonic seizures and death after the injection of PTZ were recorded.
Statistical method: Protection rates and mortality of different administration groups were separately compared with those of the vehicle control group to carry out a Fisher's exact test. The seizure time and the latent periods were analyzed by one-way ANOVA.

[4] = dose 3 mg/kg (own compounds calculated by free base)
[5] = dose 6 mg/kg (own compounds calculated by free base)
[6] = dose 10 mg/kg (own compounds calculated by free base)
[7] = dose 18 mg/kg (own compounds calculated by free base)
[8] = dose 30 mg/kg (own compounds calculated by free base)
[9] = dose 60 mg/kg (own compounds calculated by free base)
[10] = oral gavage 10 mg/kg (calculated by free base), from AUC of mechanical pain threshold-time curve to 24 h

SMILES	Number of animals with tonic straightening of hind limbs/total number of detected animals [1, 4]	Protection rate (%) [1, 4]	Number of animals with tonic straightening of hind limbs/total number of detected animals [1, 5]	Protection rate (%) [1, 5]	Number of animals with tonic straightening of hind limbs/total number of detected animals [1, 6]	Protection rate (%) [1, 6]	Number of animals with tonic straightening of hind limbs/total number of detected animals [1, 7]	Protection rate (%) [1, 7]	Number of animals with tonic straightening of hind limbs/total number of detected animals [1, 8]	Protection rate (%) [1, 8]	Number of animals with tonic straightening of hind limbs/total number of detected animals [1, 9]	Protection rate (%) [1, 9]	maximum possible effect (MPE) [2, 10]	Clonic seizure incidence [3]	Convulsive seizure incidence [3]	Generalized clonic seizure incidence [3]	Mortality [3]	Tonic seizure incidence [3]	generalized clonic seizures (percent of animals; vehicle 100%) ([3]; sc-PTZ mice, 30 mg/kg)	tonic seizure incidence (percent of animals; vehicle 75%) ([3]; sc-PTZ mice, 30 mg/kg)	further results
CC(C)C[C@H](CN)CC(=O)O [Pregabalin]	9/12	25%	10/12	16.67%	6/12	50%	5/12	58.33%	4/20	80%	1/12	91.66%	23.04%	8/8	8/8	5/8	1/8*	1/8**	62.5%	12.5%	ED50 ([1]; Mus musculus, po, MES mice, least square fit of administration dose-protection rate curve, read-out: Median effective dose (ED50) for animal protection): 12 mg/kg; maximum possible effect (% MPE) ([2]; oral gavage 30 mg/kg (calculated by free base), from AUC of mechanical pain threshold-time curve to 24 h): 110.90%; mortality (percent of animals; vehicle 75%) ([3]; sc-PTZ mice, 30 mg/kg): 12.5%; latent periods of generalized clonic seizures, tonic seizures and death ([3]; sc-PTZ mice): significantly prolong
Cc1ccc(S(=O)(=O)O)cc1.NCC1(CC(=O)O)CC2C3C=CC(C3)C21 (single isomer, unassigned; (+)) [(+)-I-4 p-toluenesulfonate]	7/8	12.5%	6/8	25%	7/8	12.5%	7/12	41.7%	3/8	62.5%	1/6	83.3%	69.09%	10/10	10/10	6/10	3/10	2/10	60%	20%	Median effective dose (ED50) for animal protection ([1]; MES mice, least square fit of administration dose-protection rate curve): 21.51 mg/kg; area under the mechanical pain threshold-time curve compared with the vehicle control group ([2]; oral gavage 10 mg/kg (calculated by free base)): significantly improved; latent periods of generalized clonic seizures, tonic seizures and death ([3]; sc-PTZ mice): significantly prolong

Reference: patent US20260174682A1, “GAMMA-AMINOBUTYRIC ACID DERIVATIVE COMPRISING POLYCYCLIC STRUCTURE, METHOD FOR PREPARING SAME, AND USE THEREOF” (ZHONGSHAN INSTITUTE FOR DRUG DISCOVERY, SIMM, CAS., priority 2022, published 2026)
